Laboratory results reported in ChEMBL document CHEMBL5352497, “Aromatic hydrazides: A potential solution for Acinetobacter baumannii infections” (Eur J Med Chem, 2023).
≈ marks a conversion by molar mass, not a printed value. Calls of active or inactive are those of the source.

Tests used:
HEK293 [1] = assay: Cytotoxicity against HEK293 cells at 8 ug/ml; type: toxicity, cell-based; details: human, dose 8 µg/ml
HEK293 [2] = assay: Cytotoxicity against HEK293 cells at 32 ug/ml; type: toxicity, cell-based; details: human, at 32 µg/mL
[3] = Hemolytic activity in mouse RBC at 8 ug/ml incubated for 1 hr; type: toxicity, cell-based, Erythrocyte; details: red blood cells (erythrocytes), at 8 µg/mL, read-out: Activity
[4] = (§1) Hemolytic activity in mouse RBC at 32 ug/ml incubated for 1 hr; type: toxicity, cell-based, Erythrocyte; details: red blood cells (erythrocytes), at 32 µg/mL, read-out: Activity
Bacillus anthracis = assay: Antibacterial activity against Bacillus anthracis Sterne F32; type: functional
Staphylococcus aureus = assay: Antibacterial activity against Staphylococcus aureus ATCC 25923; type: functional
[5] = test system: Staphylococcus epidermidis; assay: Antibacterial activity against Staphylococcus epidermidis ATCC 12228; type: functional
Escherichia coli = assay: Antibacterial activity against Escherichia coli MC1061; type: functional
Klebsiella pneumoniae = assay: Antibacterial activity against Klebsiella pneumoniae ATCC 27736; type: functional
Salmonella enterica = assay: Antibacterial activity against Salmonella enterica ATCC 14028; type: functional
Acinetobacter baumannii [6] = assay: Antibacterial activity against Acinetobacter baumannii ATCC 19606; type: functional
Acinetobacter baumannii [7] = assay: Antibacterial activity against Acinetobacter baumannii BAA1605; type: functional
Acinetobacter baumannii [8] = assay: Bacteriostatic activity against Acinetobacter baumannii ATCC 19606 assessed as reduction in colony forming unit incubated for 9 hrs; type: functional, organism-based
Acinetobacter baumannii [9] = assay: Bacteriostatic activity against Acinetobacter baumannii ATCC 19606 assessed as reduction in colony forming unit incubated for 24 hrs; type: functional, organism-based
Erythrocyte = assay: as §1; type: toxicity, cell-based; details: erythrocyte, 1 h, dose 32 µg/ml
Acinetobacter baumannii [10] = assay: microbe, parasite or virus in culture; details: ATCC 19606
Enterobacter cloacae = assay: Antibacterial activity against Enterobacter cloacae ATCC 13047; type: functional
Pseudomonas aeruginosa = assay: Antibacterial activity against Pseudomonas aeruginosa ATCC 27853; type: functional
Acinetobacter baumannii [11] = assay: Bactericidal activity against Acinetobacter baumannii ATCC 19606 assessed as reduction in colony forming unit at 1 to 4 times MIC measured after 24 hrs; type: functional, organism-based
Acinetobacter baumannii [12] = assay: Antibiofilm activity against Acinetobacter baumannii ATCC 19606 assessed as inhibition of biofilm formation at 0.5 ug/ml by crystal violet assay; type: functional; design: scale not given: the % may be the effect or the level left; details: dose 0.5 µg/ml
Acinetobacter baumannii [13] = assay: Induction of resistance development in Acinetobacter baumannii ATCC 19606 assessed as fold increase in MIC measured after 15 passages; type: functional

Row | Structure (SMILES) | Activity (HEK293 [1]) | Activity (HEK293 [2]) | hemolysis at 1 h, 8 ug/ml [3] | MIC (Bacillus anthracis) | MIC (Staphylococcus aureus) | MIC [5] | MIC (Escherichia coli) | MIC (Klebsiella pneumoniae) | MIC (Salmonella enterica) | MIC (Acinetobacter baumannii [6]) | MIC (Acinetobacter baumannii [7]) | Activity (Erythrocyte) | MIC (Enterobacter cloacae) | MIC (Pseudomonas aeruginosa) | further results
1 | O=C(NNc1cccc(F)c1)c1ccc2ccccc2n1 | Non-Toxic | 40% | < 10% |  |  |  |  |  |  |  |  |  |  |  | hemolysis at 1 h, 32 ug/ml [4]: 20%
2 | O=C(O)c1cn(C2CC2)c2cc(N3CCNCC3)c(F)cc2c1=O [CIPROFLOXACIN] |  |  | < 10% | 1 µg/mL (≈ 3.02 µM) | ≤ 0.063 µg/mL | ≤ 0.063 µg/mL | ≤ 0.063 µg/mL | ≤ 0.063 µg/mL | ≤ 0.063 µg/mL | 1 µg/mL (≈ 3.02 µM) | 2 µg/mL (≈ 6.04 µM) | Non-Toxic |  |  | Activity (Acinetobacter baumannii [8]): Active; Activity (Acinetobacter baumannii [9]): Active; MIC (Acinetobacter baumannii [10]): 2 µg/mL (≈ 6.04 µM)
3 | O=C(NNc1ccc(Cl)cc1)c1ccc(F)cn1 | Non-Toxic | 17% | < 10% | > 64 µg/mL | > 64 µg/mL | > 64 µg/mL | 16 µg/mL (≈ 60.2 µM) | 64 µg/mL (≈ 241 µM) | 64 µg/mL (≈ 241 µM) | 1 µg/mL (≈ 3.76 µM) | ≤ 0.125 µg/mL | Non-Toxic | 16 µg/mL (≈ 60.2 µM) | > 64 µg/mL | Activity (Acinetobacter baumannii [11]): Active; Activity (Acinetobacter baumannii [12]): 30%; fold change (FC) (Acinetobacter baumannii [13]): 2
4 | CCOC(=O)CNNC(=O)c1ccc2ccccc2n1 | Non-Toxic |  | < 10% | > 64 µg/mL | > 64 µg/mL | > 64 µg/mL | > 64 µg/mL | > 64 µg/mL | > 64 µg/mL | > 64 µg/mL | > 64 µg/mL | Non-Toxic | > 64 µg/mL | > 64 µg/mL | 
5 | O=C(NNc1ccc(Cl)cc1)c1cccc(F)n1 | Non-Toxic |  | < 10% | > 64 µg/mL | > 64 µg/mL | > 64 µg/mL | 16 µg/mL (≈ 60.2 µM) | 16 µg/mL (≈ 60.2 µM) | 16 µg/mL (≈ 60.2 µM) | ≤ 0.125 µg/mL | ≤ 0.125 µg/mL | Non-Toxic | 16 µg/mL (≈ 60.2 µM) | > 64 µg/mL | 
